Key:
[1] = Displacement of BODIPY-Bak conjugated peptide from GST-tagged human Bcl-2-like protein 1 A142Gdelta136T mutant expressed in Escherichia coli BL21 cells at 10 uM after 3 hrs by fluorescence polarization competition assay
[2] = target: Induced myeloid leukemia cell differentiation protein Mcl-1 homolog (Mus musculus, UniProt P97287); test: Binding affinity for GST-tagged mouse MCL1 expressed in Escherichia coli BL21 cells
Bcl-2-like protein 1 [3] = target: Bcl-2-like protein 1 (Homo sapiens, UniProt Q07817, Y101H); test: Displacement of BODIPY-Bak conjugated peptide from GST-tagged human Bcl-2-like protein 1 Y101H mutant expressed in Escherichia coli BL21 cells at 10 uM after 3 hrs by fluorescence polarization competition assay
Bcl-2-like protein 1 [4] = target: Bcl-2-like protein 1 (Homo sapiens, UniProt Q07817, A142T); test: Displacement of BODIPY-Bak conjugated peptide from GST-tagged human Bcl-2-like protein 1 A142T mutant expressed in Escherichia coli BL21 cells at 10 uM after 3 hrs by fluorescence polarization competition assay
[5] = Displacement of BODIPY-Bak conjugated peptide from GST-tagged human Bcl-2-like protein 1 delta136T mutant expressed in Escherichia coli BL21 cells at 10 uM after 3 hrs by fluorescence polarization competition assay
Bcl-2-like protein 1 [6] = target: Bcl-2-like protein 1 (Homo sapiens, UniProt Q07817, Y195F); test: Displacement of BODIPY-Bak conjugated peptide from GST-tagged human Bcl-2-like protein 1 Y195F mutant expressed in Escherichia coli BL21 cells at 10 uM after 3 hrs by fluorescence polarization competition assay
Bcl-2-like protein 1 [7] = target: Bcl-2-like protein 1 (Homo sapiens, UniProt Q07817, E129H); test: Displacement of BODIPY-Bak conjugated peptide from GST-tagged human Bcl-2-like protein 1 E129H mutant expressed in Escherichia coli BL21 cells at 10 uM after 3 hrs by fluorescence polarization competition assay
Bcl-2-like protein 1 [8] = target: Bcl-2-like protein 1 (Homo sapiens, UniProt Q07817, A142G); test: Displacement of BODIPY-Bak conjugated peptide from GST-tagged human Bcl-2-like protein 1 A142G mutant expressed in Escherichia coli BL21 cells at 10 uM after 3 hrs by fluorescence polarization competition assay
Bcl-2-like protein 1 [9] = target: Bcl-2-like protein 1 (Homo sapiens, UniProt Q07817, L130A); test: Displacement of BODIPY-Bak conjugated peptide from GST-tagged human Bcl-2-like protein 1 L130A mutant expressed in Escherichia coli BL21 cells at 10 uM after 3 hrs by fluorescence polarization competition assay
Bcl-2-like protein 1 [10] = target: Bcl-2-like protein 1 (Homo sapiens, UniProt Q07817, E96G); test: Displacement of BODIPY-Bak conjugated peptide from GST-tagged human Bcl-2-like protein 1 E96G mutant expressed in Escherichia coli BL21 cells at 10 uM after 3 hrs by fluorescence polarization competition assay
Bcl-2-related protein A1 = target: T1, Bcl-2-related protein A1 (Homo sapiens, UniProt Q16548); test: Binding affinity for GST-tagged human BCL2A1 expressed in Escherichia coli BL21 cells
T1 sequence (Q16548 whole entry): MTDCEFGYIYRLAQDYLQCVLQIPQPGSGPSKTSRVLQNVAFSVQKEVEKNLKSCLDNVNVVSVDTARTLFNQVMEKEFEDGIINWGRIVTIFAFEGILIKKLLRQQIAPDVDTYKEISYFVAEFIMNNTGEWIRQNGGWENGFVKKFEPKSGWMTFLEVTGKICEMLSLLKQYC

Bcl-2-like protein 1 [11] = target: Bcl-2-like protein 1 (Homo sapiens, UniProt Q07817, V141A); test: Displacement of BODIPY-Bak conjugated peptide from GST-tagged human Bcl-2-like protein 1 V141A mutant expressed in Escherichia coli BL21 cells at 10 uM after 3 hrs by fluorescence polarization competition assay
Bcl-2-like protein 1 [12] = target: Bcl-2-like protein 1 (Homo sapiens, UniProt Q07817); test: Displacement of BODIPY-Bak conjugated peptide from GST-tagged human Wild type Bcl-2-like protein 1 expressed in Escherichia coli BL21 cells at 10 uM after 3 hrs by fluorescence polarization competition assay
Bcl-2-like protein 1 [13] = target: Bcl-2-like protein 1 (Homo sapiens, UniProt Q07817, L130G); test: Displacement of BODIPY-Bak conjugated peptide from GST-tagged human Bcl-2-like protein 1 L130G mutant expressed in Escherichia coli BL21 cells at 10 uM after 3 hrs by fluorescence polarization competition assay
Bcl-2-like protein 1 [14] = target: Bcl-2-like protein 1 (Homo sapiens, UniProt Q07817, F97V); test: Displacement of BODIPY-Bak conjugated peptide from GST-tagged human Bcl-2-like protein 1 F97V mutant expressed in Escherichia coli BL21 cells at 10 uM after 3 hrs by fluorescence polarization competition assay
Bcl-2-like protein 1 [15] = target: Bcl-2-like protein 1 (Homo sapiens, UniProt Q07817, G196A); test: Displacement of BODIPY-Bak conjugated peptide from GST-tagged human Bcl-2-like protein 1 G196A mutant expressed in Escherichia coli BL21 cells at 10 uM after 3 hrs by fluorescence polarization competition assay
Bcl-2-like protein 1 [16] = target: Bcl-2-like protein 1 (Homo sapiens, UniProt Q07817, A93V); test: Displacement of BODIPY-Bak conjugated peptide from GST-tagged human Bcl-2-like protein 1 A93V mutant expressed in Escherichia coli BL21 cells at 10 uM after 3 hrs by fluorescence polarization competition assay
Chain of Bcl-2-like protein 1 (Homo sapiens, UniProt Q07817, A93V) (Q07817 whole entry A93V): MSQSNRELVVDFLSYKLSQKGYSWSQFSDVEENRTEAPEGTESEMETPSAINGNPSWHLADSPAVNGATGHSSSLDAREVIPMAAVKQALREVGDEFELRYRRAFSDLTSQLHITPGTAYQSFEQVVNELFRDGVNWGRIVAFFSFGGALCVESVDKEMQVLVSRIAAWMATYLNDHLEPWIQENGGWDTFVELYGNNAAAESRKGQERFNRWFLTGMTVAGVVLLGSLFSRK

Chain of Bcl-2-like protein 1 (Homo sapiens, UniProt Q07817, L130A) (Q07817 whole entry L130A): as the sequence (Q07817 whole entry A93V) above, with V93A, L130A counted along it
Chain of Bcl-2-like protein 1 (Homo sapiens, UniProt Q07817, A142G) (Q07817 whole entry A142G): as the sequence (Q07817 whole entry A93V) above, with V93A, A142G counted along it
Chain of Bcl-2-like protein 1 (Homo sapiens, UniProt Q07817, E96G) (Q07817 whole entry E96G): as the sequence (Q07817 whole entry A93V) above, with V93A, E96G counted along it
Chain of Bcl-2-like protein 1 (Homo sapiens, UniProt Q07817, G196A) (Q07817 whole entry G196A): as the sequence (Q07817 whole entry A93V) above, with V93A, G196A counted along it
Chain of Bcl-2-like protein 1 (Homo sapiens, UniProt Q07817, L130G) (Q07817 whole entry L130G): as the sequence (Q07817 whole entry A93V) above, with V93A, L130G counted along it
Chain of Bcl-2-like protein 1 (Homo sapiens, UniProt Q07817) (Q07817 whole entry): as the sequence (Q07817 whole entry A93V) above, with V93A counted along it
Chain of Bcl-2-like protein 1 (Homo sapiens, UniProt Q07817, Y195F) (Q07817 whole entry Y195F): as the sequence (Q07817 whole entry A93V) above, with V93A, Y195F counted along it
Chain of Bcl-2-like protein 1 (Homo sapiens, UniProt Q07817, Y101H) (Q07817 whole entry Y101H): as the sequence (Q07817 whole entry A93V) above, with V93A, Y101H counted along it
Chain of Bcl-2-like protein 1 (Homo sapiens, UniProt Q07817, F97V) (Q07817 whole entry F97V): as the sequence (Q07817 whole entry A93V) above, with V93A, F97V counted along it
Chain of Bcl-2-like protein 1 (Homo sapiens, UniProt Q07817, V141A) (Q07817 whole entry V141A): as the sequence (Q07817 whole entry A93V) above, with V93A, V141A counted along it
Chain of Induced myeloid leukemia cell differentiation protein Mcl-1 homolog (P97287 whole entry): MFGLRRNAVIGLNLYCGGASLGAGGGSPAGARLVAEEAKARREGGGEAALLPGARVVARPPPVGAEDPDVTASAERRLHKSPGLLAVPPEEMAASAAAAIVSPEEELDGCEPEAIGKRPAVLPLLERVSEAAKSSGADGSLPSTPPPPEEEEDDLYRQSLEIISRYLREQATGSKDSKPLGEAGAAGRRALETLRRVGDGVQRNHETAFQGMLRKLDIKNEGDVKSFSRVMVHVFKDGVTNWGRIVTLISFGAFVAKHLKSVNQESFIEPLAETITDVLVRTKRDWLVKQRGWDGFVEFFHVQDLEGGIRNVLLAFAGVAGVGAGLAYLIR
Chain of Bcl-2-like protein 1 (Homo sapiens, UniProt Q07817, E129H) (Q07817 whole entry E129H): as the sequence (Q07817 whole entry A93V) above, with V93A, E129H counted along it
Chain of Bcl-2-like protein 1 (Homo sapiens, UniProt Q07817, A142T) (Q07817 whole entry A142T): as the sequence (Q07817 whole entry A93V) above, with V93A, A142T counted along it

`CN(C)CC[C@H](CSc1ccccc1)Nc1ccc(S(=O)(=O)NC(=O)c2ccc(N3CCC(C)(C)CC3)cc2)cc1[N+](=O)[O-]` showed a Ki [1] of 45 nM, a Kd [2] of over 1000 nM and a Ki (Bcl-2-like protein 1 [3]) of 450 nM. It also gave a Ki (Bcl-2-like protein 1 [4]) of 720 nM, a Ki [5] of 34 nM and a Ki (Bcl-2-like protein 1 [6]) of 51 nM. For the same compound, the Ki (Bcl-2-like protein 1 [7]) was 34 nM, the Ki (Bcl-2-like protein 1 [8]) was 290 nM and the Ki (Bcl-2-like protein 1 [9]) was 47 nM. The Ki (Bcl-2-like protein 1 [10]) was 24 nM, the Kd (Bcl-2-related protein A1) was over 1000 nM and the Ki (Bcl-2-like protein 1 [11]) was 390 nM. For the same compound, the Ki (Bcl-2-like protein 1 [12]) was 6.3 nM, the Ki (Bcl-2-like protein 1 [13]) was 86 nM and the Ki (Bcl-2-like protein 1 [14]) was 82 nM. For the same compound, the Ki (Bcl-2-like protein 1 [15]) was 41 nM and the Ki (Bcl-2-like protein 1 [16]) was under 1 nM.
